Reference: US4898975A, “Water soluble organic ammonium per halides” (Great Lakes Chemical Corporation, priority 1989, dated 1990)
Read-outs that look alike come from different tables or passages of the source. Values belong to the compound of their own block, whether it stands above or below them.

Tests used:
[1] = Titration of oxidizable bromine (Standard Methods, Method 408A); type: physicochemical; conditions: for Ox. Br2: of the sample used for vapor pressure (Table 9)
[2] = Vapor pressure of aqueous organic ammonium perbromides (isoteniscope); type: physicochemical; conditions: for Vp: 26° C. (Table 9)
Method: The vapor pressures of the aqueous organic ammonium perbromides were measured using an isoteniscope as described by Farrington, et al. [Farrington, D.; Alberti, R.; William, S.; Corwell, C.; Bender, P; and Harriman, S. Experimental Physical Chemistry, Experiment 17, pp. 164-165, 7th Edition, McGraw Hill Publishing Co., New York, 1976].

[3] = type: physicochemical; conditions: closed bottle
Method: In order to determine the shelf life stability of the perbromide solutions, a series of studies were conducted to determine the percent bromine lost over time. The following tables shown below list the perbromides studied and the percent oxidizable bromine lost over time. The perbromides studied were kept in closed bottles in ambient conditions (Table 7) and at 50° C.

[4] = Water solubility of perbromides
[5] = physchem; conditions: water
[6] = concentrated and anhydrous perbromides (Table 4)
[7] = partially soluble perbromides, separated liquid phase (Table 2)
[8] = higher aqueous ethanolammonium perbromides (Table 6)
[9] = 50° C., time elapsed 40 (months)
[10] = 50° C., time elapsed 40 (months), 1.752e+06 min
[11] = completely soluble perbromides, aqueous solution (Table 1)

Compound: OCCNCCO [Compound 20, Diethanolammonium Perbromide]
- Tit. Ox. Br2 [1, 6]: 45.3 % by Weight

- Ox. Br2 [1]: 37.9 % by Weight
- vapor pressure [2]: 140 mm Hg
- Vp [2]: 145 mmHg
Compound: NaBr3 [Compound 33, reference compound]

- Relative Change in % Br2 ([3]; 29200 h): 3.1%
- Relative Change in % Br2 ([3]; ambient, 17520 h): 2.0%
Compound: Ethanolammonium Perbromide [Compound 21]

Compound: CCCCN(CCCC)CCCC [Compound 12, Tributylammonium Perbromide, reference compound]
- Ox. Br2 [1]: 37.5 % by Weight
- Tit. Ox. Br2 [1, 7]: 36.0 % by Weight
- Vp [2]: 28 mmHg

Compound: NCCO [Compound 27]
- Tit. Ox. Br2 [1, 8]: 57.7 % by Weight
- Ox. Br2 [1]: 57.7 % by Weight
- Vp [2]: 116 mmHg

Compound: CCN(CC)CCO [Compound 14, Diethylethanolammonium]
- Solubility in water (in words) [4]: only sparingly soluble in water
- solubility [4]: 1 mg/mL
- Tit. Ox. Br2 [1, 7]: 42.3 % by Weight

Compound: OCCNCCO [Compound 4, Diethanolammonium Perbromide]
- Vp [2]: 49 mmHg
- Initial Ox. Br2 ([3]; 50° C.): 37.0 % by Weight
- Change in % Br2 [3, 9]: 7.0%
- Final Ox. Br2 [3, 9]: 30.0 % by Weight
- Relative Change in % Br2 [3, 10]: 18.9%

Compound: CCCN [Compound 3, Propylammonium Perbromide]
- Tit. Ox. Br2 [1, 11]: 39.3 % by Weight
- Vp [2]: 36 mmHg

Compound: CCCN [Compound 19, Propylammonium Perbromide]
- Tit. Ox. Br2 [1, 6]: 53.2 % by Weight

- Relative Change in % Br2 ([3]; 29200 h): 2.7%
- Relative Change in % Br2 ([3]; ambient, 17520 h): 2.3%
Compound: Propylammonium Perbromide [Compound 22]

- solubility [4]: 10 mg/mL
- Ox. Br2 [1]: 43.3 % by Weight
- Tit. Ox. Br2 [1, 7]: 40.9 % by Weight
- Vp [2]: 38 mmHg
- Change in % Br2 ([3]; ambient temperature, 16 months): 2.1%
- Final Ox. Br2 ([3]; ambient temperature, 16 months): 41.1 % by Weight
- Relative Change in % Br2 ([3]; ambient temperature, 16 months, 700800 min): 4.9%
- Initial Ox. Br2 ([3]; ambient temperature): 43.2 % by Weight
Compound: CCCCNCCCC [Compound 11, Dibutylammonium Perbromide]

Compound: NCCO [Compound 18, Ethanolammonium Perbromide]
- Tit. Ox. Br2 [1, 6]: 51.8 % by Weight

Compound: CN(C)CCO [Compound 7, Dimethylethanolammonium Perbromide, reference compound]
- Vp [2]: 30 mmHg

Compound: BrBr [Compound 35, Bromine, reference compound]
- Ox. Br2 [1]: 100 % by Weight
- vapor pressure ([2]; 26° C.): approximately 220 mm Hg
- Vp [2]: 223 mmHg

Compound: NCCO [Compound 1, Ethanolammonium Perbromide]
- Initial Ox. Br2 ([3]; 50° C.): 40.8 % by Weight
- Change in % Br2 [3, 9]: 1.8%
- Final Ox. Br2 [3, 9]: 39.0 % by Weight
- Relative Change in % Br2 [3, 10]: 4.4%
- Change in % Br2 ([3]; ambient temperature, 24 months): 1.6%
- Final Ox. Br2 ([3]; ambient temperature, 24 months): 38.5 % by Weight
- Relative Change in % Br2 ([3]; ambient temperature, 24 months, 1.0512e+06 min): 4.0%
- Initial Ox. Br2 ([3]; ambient temperature): 40.1 % by Weight

Compound: NCCCCCCN [Compound 16, 1,6-Hexanediammonium]
- Tit. Ox. Br2 ([1]; perbromides precipitated out of aqueous solution (Table 3)): 51.8 % by Weight
- solubility [5]: 500 mg/mL

Compound: NCCO [Compound 28]
- Tit. Ox. Br2 [1, 8]: 63.9 % by Weight

Compound: NCCO [Compound 26]
- Tit. Ox. Br2 [1, 8]: 52.6 % by Weight

- Tit. Ox. Br2 [1, 11]: 37.7 % by Weight
Compound: CCNCCO [Compound 6, Ethylethanolammonium Perbromide]

- Tit. Ox. Br2 [1, 11]: 34.7 % by Weight
Compound: CCCCCCCCN [Compound 9, Octylammonium Perbromide]

Compound: NCCO [Compound 29]
- Tit. Ox. Br2 [1, 8]: 72.6 % by Weight

- Tit. Ox. Br2 [1, 7]: 45.1 % by Weight
- solubility [5]: 100 mg/mL
Compound: CCCNCCC [Compound 10, Dipropylammonium Perbromide]

- Tit. Ox. Br2 [1, 11]: 39.3 % by Weight
- Ox. Br2 [1]: 39.3 % by Weight
- Vp [2]: 28 mmHg
Compound: CNCCO [Compound 5, Methylethanolammonium Perbromide]

Compound: CCCCCCN [Compound 8, Hexylammonium Perbromide]
- Tit. Ox. Br2 [1, 11]: 36.1 % by Weight
